What was measured:
[1] = system: adjuvant-induced arthritis in rats; assay: Adjuvant-induced arthritis, paw swelling (immunotherapy mediated protection); format: in vivo, rat; settings: for inhibition of adjuvant-induced arthritis, left and right paw: Example 14, folate-FITC 3000 nmoles/kg per day, days 1,2,3, osmotic pump, MTX 0.15 mg ip days 1,8,15
Protocol: Arthritis was induced in 150-200 g female Lewis rats (Charles River Laboratories, Inc., Wilmington, Mass.), n=4/dose group. Briefly, 0.5 mg of heat-killed Mycoplasma butericum, suspended in mineral oil (5 mg/ml), was injected on day 0 into the left hind foot of rats following anesthesia with ketamine and xylazine. Disease was allowed to progress for 21 days, and animals were weighed on a daily basis to ensure the status of their health. […] Control rats were also maintained on a folate-deficient diet but not induced to develop arthritis.
The efficacy of a folate-FITC conjugate (folate-fluorescein isothiocyanate conjugate) against adjuvant-induced arthritis in rats was investigated. Each rat used in the experiment was immunized at the base of the tail with FITC-KLH (150 μg) to induce antibodies against FITC on days −38 and −10 before administration of Mycoplasma butericum (adjuvant) to induce arthritis. The immunization of FITC-KLH was done in combination with an adjuvant (i.e., such as TITERMAX® GOLD (150 μg), Alum (150 μg), or GPI-100 (150 μg) which are all adjuvants to induce antibodies against FITC as opposed to the adjuvant used to induce arthritis). The immunized animals were then injected on day 0 in the left foot pad with 0.5 mg of heat-killed Mycoplasma butyricum (adjuvant) to initiate development of arthritis. Then on days 1, 2, 3, 9, 11, and 14, post-adjuvant (Mycoplasma butyricum) injection, the rats were injected intraperitoneally with either saline (control rats) or 2000 nmoles/kg of folate-FITC (FF). Calipers were used to measure left and right foot dimensions daily.
Methotrexate (MTX) was administered at a dose of 0.15 mg by intraperitoneal injection one time per day on days 1, 8, and 15 after adjuvant administration. MTX was used in place of folate-FITC for animals treated with MTX.
Other animals were treated with 0.75 mg of MTX (FF+mid) or 1.5 mg of MTX (FF+high).

activated macrophages = assay: Biodistribution analysis (gamma counting of harvested tissues) in arthritic rats; format: in vivo, rat; settings: FF 2000 nmoles/kg days 1,2,3,9,11,14 or MTX 0.15 mg days 1,8,15
Protocol: Arthritis was induced in 150-200 g female Lewis rats (Charles River Laboratories, Inc., Wilmington, Mass.), n=4/dose group. Briefly, 0.5 mg of heat-killed Mycoplasma butericum, suspended in mineral oil (5 mg/ml), was injected on day 0 into the left hind foot of rats following anesthesia with ketamine and xylazine. Disease was allowed to progress for 21 days, and animals were weighed on a daily basis to ensure the status of their health. […] All rats were maintained on a folate-deficient diet (DYETS, Inc., Bethlehem, Pa.) for 3 weeks prior to administration of folate-FITC in order to lower serum folate levels to physiologically relevant concentrations. Control rats were also maintained on a folate-deficient diet but not induced to develop arthritis.
Seventeen days following induction of the arthritis and three days prior to administration of the imaging agent (EC20), rats destined for macrophage depletion received a single intraperitoneal injection of clodronate liposomes containing 20 mg clodronate. […]
For biodistribution analysis, rats were euthanized by intraperitoneal injection of nebutal or pentobarbitol sodium. Liver, spleen, heart, lungs, intestine, and kidneys were then harvested and radiation in each tissue was determined by counting in a gamma counter (Packard BioScience Co., Meridian, Conn.).

liver macrophages = assay: Flow cytometry of folate-FITC binding to disaggregated liver cells (ED2 macrophage marker); format: cell-based, rat
Text: The protocols described in Examples 2, 4, 6 and 7 were used. To further confirm that the elevated uptake of EC20 in livers of arthritic rats is due to a macrophage population, livers were resected from collagenase-perfused rats and their disaggregated cells examined for folate conjugate uptake, using folate-FITC as a fluorescent marker for FR expression.

[2] = system: tissue infiltrating neutrophils
Text: (§1) Using an antibody specific for granulocytes, we also examined whether tissue infiltrating neutrophils might take up folate conjugates.

[3] = system: Mac-1+ peripheral blood cells
Text: as §1

[4] = Example 8, 2000 nmoles/kg ip days 1,2,3,9,11,14, FITC-immunized rats

Row | SMILES | inhibition of adjuvant-induced arthritis, left and right paw [1] | effect of treatment on EC20 organ uptake (activated macrophages) | binding in presence of excess free folic acid (liver macrophages; 1 mM folic acid) | liver macrophages that bound folate-FITC (liver macrophages; arthritic rats, 1 μM folate-FITC) | FITC intensity of arthritic macrophages (liver macrophages; vs macrophages from healthy livers) | activated macrophages invading feet after about 10 days (foot dimensions) [1, 4] | early (neutrophil) phase of paw swelling of adjuvant-injected feet [1, 4] | prolonged treatment vs 3 initial doses ([1]; Example 15, 3000 nmoles/kg, days 1,2,3,9,11,14 vs days 1,2,3) | inhibition of adjuvant-induced arthritis, right (uninjected) paw volume ([1]; Example 15, FF 3000, 600 and 120 nmoles/kg) | binding to liver neutrophils [2] | binding to Mac-1+ peripheral blood cells [3]
1 | CN(Cc1cnc2nc(N)nc(N)c2n1)c1ccc(C(=O)N[C@@H](CCC(=O)O)C(=O)O)cc1 [MTX, Methotrexate, reference compound] | inhibits adjuvant-induced arthritis as well as MTX | prevent EC20 uptake in all organs examined except the kidney |  |  |  |  |  |  |  |  | 
2 | Nc1nc2ncc(CNc3ccc(C(=O)NC(CCC(=O)NCCNC(=S)Nc4ccc(C(=O)O)c(-c5c6ccc(=O)cc-6oc6cc(O)ccc56)c4)C(=O)O)cc3)nc2c(=O)[nH]1 (stereo not shown) [folate-FITC, folate-fluorescein isothiocyanate] | inhibits adjuvant-induced arthritis as well as MTX | prevent EC20 uptake in all organs examined except the kidney | suppressed | 70% | higher than that of macrophages from healthy livers | eliminated or reduced | no impact on this phase of paw swelling | prolonged treatment with FF is more effective than 3 initial doses | inhibits adjuvant-induced arthritis in the right paw | no binding capacity | no binding affinity

— patent publication US7632505B2, “Treatment of macrophage mediated disease” (Purdue Research Foundation, priority 2001, dated 2009)
